From patent publication US20240360165A1, “INHIBITORS OF CYCLIN DEPENDENT KINASE 7 (CDK7)” (Syros Pharmaceuticals, Inc., priority 2016, published 2024)
Where two headings read alike, the source gives them in different places.

What was measured:
[1] = target: T1, CDK12 (aa686-1082)/Cyclin K complex (Homo sapiens, UniProt Q9NYV4); assay: CDK12 inhibition assay (Caliper/LabChip EZ Reader kinase assay); format: biochemical; settings: Table 1; CDK12 (aa686-1082)/Cyclin K 50 nM, ATP 2 mM, 3 hr at 27° C.
T1 construct: CDK12 (aa686-1082)/Cyclin K complex
T1 sequence (Q9NYV4 686-1082, species assumed): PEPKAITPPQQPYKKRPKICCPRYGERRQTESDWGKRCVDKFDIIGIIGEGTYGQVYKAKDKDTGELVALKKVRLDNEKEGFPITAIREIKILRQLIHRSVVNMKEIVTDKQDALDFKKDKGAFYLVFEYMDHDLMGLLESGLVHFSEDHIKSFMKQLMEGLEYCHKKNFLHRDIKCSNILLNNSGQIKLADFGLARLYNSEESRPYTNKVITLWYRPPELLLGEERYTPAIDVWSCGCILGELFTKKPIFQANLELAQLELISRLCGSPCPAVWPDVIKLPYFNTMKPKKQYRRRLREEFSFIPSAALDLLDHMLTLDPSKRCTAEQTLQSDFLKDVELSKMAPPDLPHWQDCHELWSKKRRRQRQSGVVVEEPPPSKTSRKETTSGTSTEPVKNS
T1 sequence (O75909 whole entry partner, species assumed, the tested form may be a part): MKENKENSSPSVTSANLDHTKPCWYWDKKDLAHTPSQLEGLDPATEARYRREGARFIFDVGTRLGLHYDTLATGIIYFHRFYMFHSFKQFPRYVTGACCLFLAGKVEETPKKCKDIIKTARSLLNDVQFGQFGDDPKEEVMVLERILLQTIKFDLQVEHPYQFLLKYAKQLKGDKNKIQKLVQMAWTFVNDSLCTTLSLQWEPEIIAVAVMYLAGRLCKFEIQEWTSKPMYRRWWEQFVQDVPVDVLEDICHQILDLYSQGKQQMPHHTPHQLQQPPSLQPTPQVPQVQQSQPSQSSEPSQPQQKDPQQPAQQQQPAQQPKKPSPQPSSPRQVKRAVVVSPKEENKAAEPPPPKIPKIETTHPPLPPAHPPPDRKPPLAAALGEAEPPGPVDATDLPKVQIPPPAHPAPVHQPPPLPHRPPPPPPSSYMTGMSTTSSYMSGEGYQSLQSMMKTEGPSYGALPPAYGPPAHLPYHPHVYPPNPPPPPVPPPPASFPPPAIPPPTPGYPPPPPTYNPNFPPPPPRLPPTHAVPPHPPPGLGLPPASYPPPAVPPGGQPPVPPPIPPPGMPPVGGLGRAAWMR

CDK2/Cyclin E1 complex = CDK2/Cyclin E1 complex (Homo sapiens, UniProt P24941); assay: CDK2 inhibition assay (Caliper/LabChip EZ Reader kinase assay); format: biochemical; settings: Table 1; CDK2/Cyclin E1 0.5 nM, ATP 2 mM, 35 min at 27° C.
Method in brief: (§1)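 Activity read as fluorescent peptide conversion on a LabChip EZ Reader. For CDK2/Cyclin E1 (0.5 nM), substrate was 5-FAM-CDK7tide (2 μM) with 2 mM MgCl2; for CDK9/Cyclin T1 (8 nM), 5-FAM-CDK9tide (2 μM) with 10 mM MgCl2.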

CDK9/Cyclin T1 complex = CDK9/Cyclin T1 complex (Homo sapiens, UniProt P50750); assay: CDK9 inhibition assay (Caliper/LabChip EZ Reader kinase assay); format: biochemical; settings: Table 1; CDK9/Cyclin T1 8 nM, ATP 2 mM, 15 min at 27° C.
Chain of CDK9/Cyclin T1 complex (P50750 whole entry, species assumed): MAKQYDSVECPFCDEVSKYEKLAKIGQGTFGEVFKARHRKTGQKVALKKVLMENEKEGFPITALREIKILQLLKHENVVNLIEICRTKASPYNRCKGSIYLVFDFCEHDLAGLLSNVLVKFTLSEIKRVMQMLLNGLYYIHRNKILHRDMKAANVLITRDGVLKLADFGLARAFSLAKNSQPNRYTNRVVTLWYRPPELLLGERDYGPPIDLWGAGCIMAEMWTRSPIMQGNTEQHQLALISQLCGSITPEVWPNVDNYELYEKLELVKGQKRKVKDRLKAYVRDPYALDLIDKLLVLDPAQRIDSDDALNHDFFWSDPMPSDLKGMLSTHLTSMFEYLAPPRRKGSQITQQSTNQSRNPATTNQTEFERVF
Chain of CDK9/Cyclin T1 complex (O60563 whole entry partner, species assumed): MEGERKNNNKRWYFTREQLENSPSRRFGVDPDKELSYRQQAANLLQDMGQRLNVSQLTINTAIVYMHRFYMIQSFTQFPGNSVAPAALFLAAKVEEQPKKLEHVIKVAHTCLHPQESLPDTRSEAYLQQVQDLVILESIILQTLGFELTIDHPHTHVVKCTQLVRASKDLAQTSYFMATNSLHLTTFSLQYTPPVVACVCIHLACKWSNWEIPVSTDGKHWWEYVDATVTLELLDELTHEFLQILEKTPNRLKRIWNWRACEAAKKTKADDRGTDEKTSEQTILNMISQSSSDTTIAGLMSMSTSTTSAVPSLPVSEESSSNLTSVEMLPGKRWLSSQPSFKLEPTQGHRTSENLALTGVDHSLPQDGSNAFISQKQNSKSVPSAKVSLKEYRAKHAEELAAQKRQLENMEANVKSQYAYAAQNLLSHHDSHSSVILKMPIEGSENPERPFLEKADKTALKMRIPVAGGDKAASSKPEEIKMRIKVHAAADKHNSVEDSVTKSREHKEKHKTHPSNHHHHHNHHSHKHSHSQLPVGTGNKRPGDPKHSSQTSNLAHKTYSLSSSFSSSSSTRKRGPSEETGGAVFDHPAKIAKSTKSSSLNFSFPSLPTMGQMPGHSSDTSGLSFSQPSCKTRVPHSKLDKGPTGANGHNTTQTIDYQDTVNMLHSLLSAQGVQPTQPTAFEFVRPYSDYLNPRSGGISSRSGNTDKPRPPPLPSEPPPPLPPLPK
Method in brief: as §1

[2] = target: CDK7/Cyclin H/MAT1 complex (Homo sapiens, UniProt P50613); assay: CDK7 inhibition assay (Caliper/LabChip EZ Reader kinase assay); format: biochemical; settings: Table 1; CDK7/Cyclin H/MAT1 6 nM, ATP 2 mM, 35 min at 27° C.
Chain of CDK7/Cyclin H/MAT1 complex (P50613 whole entry, species assumed): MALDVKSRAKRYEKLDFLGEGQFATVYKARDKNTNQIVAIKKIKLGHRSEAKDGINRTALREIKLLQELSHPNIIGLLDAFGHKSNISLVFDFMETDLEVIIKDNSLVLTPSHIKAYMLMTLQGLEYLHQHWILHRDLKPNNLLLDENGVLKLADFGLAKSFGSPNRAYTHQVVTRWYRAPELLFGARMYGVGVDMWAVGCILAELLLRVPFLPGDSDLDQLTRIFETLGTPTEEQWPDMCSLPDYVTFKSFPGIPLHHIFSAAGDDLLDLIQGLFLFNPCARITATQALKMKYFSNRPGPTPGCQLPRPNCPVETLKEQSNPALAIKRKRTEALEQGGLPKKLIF
Chain of CDK7/Cyclin H/MAT1 complex (P51946 whole entry partner, species assumed): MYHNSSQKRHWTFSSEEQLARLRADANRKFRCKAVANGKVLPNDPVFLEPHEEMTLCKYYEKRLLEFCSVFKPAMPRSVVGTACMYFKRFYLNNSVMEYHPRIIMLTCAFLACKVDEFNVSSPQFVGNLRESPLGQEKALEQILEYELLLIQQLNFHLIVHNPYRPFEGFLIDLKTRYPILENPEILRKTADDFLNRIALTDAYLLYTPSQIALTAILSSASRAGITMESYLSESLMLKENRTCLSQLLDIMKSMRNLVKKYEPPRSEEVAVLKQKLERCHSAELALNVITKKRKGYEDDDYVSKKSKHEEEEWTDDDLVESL
Chain of CDK7/Cyclin H/MAT1 complex (P51948 whole entry partner, species assumed): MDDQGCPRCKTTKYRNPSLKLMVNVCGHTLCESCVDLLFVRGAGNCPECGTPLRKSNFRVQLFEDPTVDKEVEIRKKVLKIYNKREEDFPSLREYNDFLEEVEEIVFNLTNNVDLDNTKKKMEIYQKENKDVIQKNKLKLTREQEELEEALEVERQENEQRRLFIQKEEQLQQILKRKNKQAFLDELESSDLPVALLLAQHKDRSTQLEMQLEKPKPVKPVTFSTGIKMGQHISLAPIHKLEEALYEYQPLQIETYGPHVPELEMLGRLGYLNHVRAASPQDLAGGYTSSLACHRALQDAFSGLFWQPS
Method in brief: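 A Perkin Elmer Caliper/LabChip EZ Reader (Waltham, MA) platform served as the basis for this CDK7 kinase inhibition assay. The work was carried out by Biortus Biosciences, located in Jiangyin, Jiangsu Province, P.R. of China. Each CDK studied had its own kinase assay, and compounds were evaluated for their ability to block CDK7 activity.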

HCC70 cells = assay: Inhibition of proliferation of HCC70 cells (CyQUANT Direct Cell Proliferation Assay, 72 hour); format: cell-based, human; settings: read-out: Inhibition of Proliferation of HCC70 Cells (calculated IC50)
Description: HCC70 cells are a cell line derived from human triple negative breast cancer. […] Known CDK inhibitors dinaciclib or N-((1S,3R)-3-((5-chloro-4-(1H-indol-3-yl) pyrimidin-2-yl)amino)cyclohexyl)-5-((E)-4-(dimethylamino)but-2-enamido)picolinamide and triptolide were used as positive controls. […] The cells were cultured at 37° C. in a humidified chamber in the presence of 5% CO2. Proliferation assays were conducted over a 72 hour time period. CyQUANT® Direct Cell Proliferation Assay (Life Technologies, Chicago, IL USA) was used to assess the anti-proliferative effects of the compounds following manufacturer's directions and utilizing the reagents supplied with the CyQUANT® Direct Cell kit.

| SMILES | IC50 [1] [µM] | IC50 (CDK2/Cyclin E1 complex) [µM] | IC50 (CDK9/Cyclin T1 complex) [µM] | IC50 [2] [µM] | IC50 (HCC70 cells; Homo sapiens, HCC70, 72 h) [µM] | IC50 (HCC70 cells) [µM] |
| --- | --- | --- | --- | --- | --- | --- |
| CP(C)(=O)c1ccc2c(-c3nc(N[C@H]4CCCNC4)ncc3C(F)(F)F)c[nH]c2c1 [Compound 354] | 0.2 to 5 | > 5 | > 5 | 0.02 to 0.2 | 1 to 5 | – |
| N#Cc1ccc2c(-c3nc(N[C@@H]4CNCC[C@H]4F)ncc3C(F)(F)F)c[nH]c2c1 [Compound 351] | 0.2 to 5 | 0.2 to 5 | 0.2 to 5 | < 0.02 | < 0.1 | – |
| OCc1cccc(-c2ccc3c(-c4nc(N[C@H]5CCCNC5)ncc4C(F)(F)F)c[nH]c3c2)n1 [Compound 316] | 0.2 to 5 | 0.2 to 5 | > 5 | < 0.02 | – | 0.1 to 1 |
| COC1CCN(C(=O)c2ccc3c(-c4nc(N[C@H]5CCCNC5)ncc4C(F)(F)F)c[nH]c3c2)C1 (single isomer, unassigned) [Compound 281] | 0.2 to 5 | 0.2 to 5 | 0.2 to 5 | < 0.02 | 0.1 to 1 | – |
| O=C(c1ccc2c(-c3nc(N[C@H]4CCCNC4)ncc3C(F)(F)F)c[nH]c2c1)N1C[C@@H](O)C(F)(F)C1 [Compound 349, [(4R)-3,3-difluoro-4-hydroxy-pyrrolidin-1-yl]-[3-[2-[[(3S)-3-piperidyl]amino]-5-(trifluoromethyl)pyrimidin-4-yl]-1H-indol-6-yl] methanone] | 0.2 to 5 | 0.2 to 5 | 0.2 to 5 | < 0.02 | 0.1 to 1 | – |
| O=C(c1ccc2c(-c3nc(N[C@H]4CCCNC4)ncc3C(F)(F)F)c[nH]c2c1)N1CC[C@](O)(C(F)(F)F)C1 (single isomer, unassigned) [Compound 299] | 0.2 to 5 | 0.2 to 5 | 0.2 to 5 | < 0.02 | 1 to 5 | – |
| N#Cc1ccc2c(-c3nc(N[C@@H]4CCC5(CCC5)NC4)ncc3C(F)(F)F)c[nH]c2c1 (single isomer, unassigned) [Compound 377] | 0.2 to 5 | > 5 | 0.2 to 5 | < 0.02 | 0.1 to 1 | – |
| O=S(=O)(CF)c1ccc2c(-c3nc(N[C@H]4CCCNC4)ncc3C(F)(F)F)c[nH]c2c1 [Compound 365, 4-[6-(fluoromethylsulfonyl)-1H-indol-3-yl]-N-[(3S)-3-piperidyl]-5-(trifluoromethyl)pyrimidin-2-amine] | 0.2 to 5 | 0.2 to 5 | 0.2 to 5 | < 0.02 | 0.1 to 1 | – |
| CC(=O)NCc1cccc(-c2ccc3c(-c4nc(N[C@H]5CCCNC5)ncc4C(F)(F)F)c[nH]c3c2)c1 [Compound 338] | 0.2 to 5 | 0.2 to 5 | 0.2 to 5 | 0.02 to 0.2 | – | 0.1 to 1 |
| Cn1cc(-c2nc(N[C@H]3CCCNC3)ncc2C(F)(F)F)c2cccc(S(C)(=O)=O)c21 [Compound 296] | > 5 | > 5 | > 5 | 0.02 to 0.2 | – | 1 to 5 |
| Fc1cccc(-c2ccc3c(-c4nc(N[C@H]5CCCNC5)ncc4C(F)(F)F)c[nH]c3c2)c1 [Compound 345] | > 5 | > 5 | > 5 | 0.2 to 5 | 1 to 5 | – |
| FC(F)(F)c1cnc(N[C@H]2CCCNC2)nc1-c1c[nH]c2cc(-c3ccc4c(c3)OCCO4)ccc12 [Compound 342] | 0.2 to 5 | > 5 | > 5 | 0.02 to 0.2 | – | 1 to 5 |
| CCCc1cnc(N[C@H]2CCCNC2)nc1-c1c[nH]c2c(S(C)(=O)=O)c(C#N)ccc12 [Compound 367, 7-methylsulfonyl-3-[2-[[(3S)-3-piperidyl]amino]-5-propyl-pyrimidin-4-yl]-1H-indole-6-carbonitrile] | > 5 | > 5 | > 5 | 0.02 to 0.2 | 1 to 5 | – |
| CP(C)(=O)c1cccc2c(-c3nc(N[C@H]4CCCNC4)ncc3C(F)(F)F)c[nH]c12 [Compound 352, (S)-dimethyl(3-(2-(piperidin-3-ylamino)-5-(trifluoromethyl)pyrimidin-4-yl)-1H-indol-7-yl)phosphine oxide] | > 5 | > 5 | > 5 | > 5 | 1 to 5 | – |
| CO[C@H]1CCN(C(=O)c2ccc3c(-c4nc(N[C@H]5CCCNC5)ncc4C(F)(F)F)c[nH]c3c2)C1 [Compound 280] | 0.2 to 5 | > 5 | > 5 | 0.02 to 0.2 | – | 0.1 to 1 |
| Cc1ccncc1-c1ccc2c(-c3nc(NC4CCCNC4)ncc3C(F)(F)F)c[nH]c2c1 (stereo not drawn) [Compound 336] | 0.2 to 5 | 0.2 to 5 | 0.2 to 5 | < 0.02 | < 0.1 | – |
| FC(F)(F)Sc1cnc(NC2CCCNC2)nc1-c1c[nH]c2ccccc12 (stereo not drawn) [Compound 305, 4-(1H-indol-3-yl)-N-(piperidin-3-yl)-5-((trifluoromethyl)thio)pyrimidin-2-amine] | 0.2 to 5 | 0.2 to 5 | 0.2 to 5 | < 0.02 | 1 to 5 | – |
| CCN1CCC[C@H](Nc2ncc(C(F)(F)F)c(-c3c[nH]c4cc(S(C)(=O)=O)ccc34)n2)C1 [Compound 298] | 0.2 to 5 | 0.2 to 5 | > 5 | < 0.02 | 0.1 to 1 | – |
| Cc1c(-c2ccc3c(-c4nc(N[C@H]5CCCNC5)ncc4C(F)(F)F)c[nH]c3c2)c[nH]c(=O)c1C#N [Compound 311, 4-methyl-2-oxo-5-[3-[2-[[(3S)-3-piperidyl]amino]-5-(trifluoromethyl)pyrimidin-4-yl]-1H-indol-6-yl]-1H-pyridine-3-carbonitrile] | 0.2 to 5 | 0.2 to 5 | 0.2 to 5 | < 0.02 | 1 to 5 | – |
| CC1CCNCC1Nc1ncc(C(F)(F)F)c(-c2c[nH]c3ccccc23)n1 (single isomer, unassigned) [Compound 373] | > 5 | > 5 | > 5 | 0.02 to 0.2 | – | 1 to 5 |
| Cn1cc(-c2ccc3c(-c4nc(NC5CCCNC5)ncc4C(F)(F)F)c[nH]c3c2)ccc1=O (stereo not drawn) [Compound 321] | 0.2 to 5 | > 5 | > 5 | < 0.02 | 0.1 to 1 | – |
| CS(=O)(=O)c1ccc2c(-c3nc(N[C@H]4CCCN(C5CC5)C4)ncc3C(F)(F)F)c[nH]c2c1 [Compound 381, N-[(3S)-1-cyclopropyl-3-piperidyl]-4-(6-methylsulfonyl-1H-indol-3-yl)-5-(trifluoromethyl) pyrimidin-2-amine] | 0.2 to 5 | > 5 | > 5 | 0.02 to 0.2 | 1 to 5 | – |
| Oc1ncccc1-c1ccc2c(-c3nc(N[C@H]4CCCNC4)ncc3C(F)(F)F)c[nH]c2c1 [Compound 310, 3-[3-[2-[[(3S)-3-piperidyl]amino]-5-(trifluoromethyl)pyrimidin-4-yl]-1H-indol-6-yl]pyridin-2-ol] | 0.2 to 5 | 0.2 to 5 | > 5 | < 0.02 | 0.1 to 1 | – |
| O=C1CCN(C(=O)c2ccc3c(-c4nc(N[C@H]5CCCNC5)ncc4C(F)(F)F)c[nH]c3c2)C1 [Compound 302, 1-[3-[2-[[(3S)-3-piperidyl]amino]-5-(trifluoromethyl)pyrimidin-4-yl]-1H-indole-6-carbonyl] pyrrolidin-3-one] | 0.2 to 5 | 0.2 to 5 | 0.2 to 5 | 0.02 to 0.2 | 0.1 to 1 | – |
